Among the data in patent publication US20160002248A1, “GLS1 INHIBITORS FOR TREATING DISEASE” (Board of Regents, The University of Texas System, priority 2014, published 2016) are EC50 and IC50 values, retold here.

Some results are limits rather than exact numbers.

One assay concerns A549 cells. In words: Proliferation Assay (A549 cell viability, Cell Titer Fluor). Format: cell-based. Conditions: Homo sapiens, 72 hours. An outline of the steps:
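Fluorescence read-out (Cell Titer Fluor, 30 min at 37 °C after reagent) after 72 h compound exposure of A549 cells; EC50 by four-parameter logistic curve fit. Cells: 1000/well, RPMI 1640 + 10% dialyzed FBS, 0.5% DMSO final.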

The target in assay [1] is T1, purified recombinant human GAC (GLS1) (Homo sapiens, UniProt O94925).
T1 sequence (O94925 55-598 isoform O94925-3 limits assumed): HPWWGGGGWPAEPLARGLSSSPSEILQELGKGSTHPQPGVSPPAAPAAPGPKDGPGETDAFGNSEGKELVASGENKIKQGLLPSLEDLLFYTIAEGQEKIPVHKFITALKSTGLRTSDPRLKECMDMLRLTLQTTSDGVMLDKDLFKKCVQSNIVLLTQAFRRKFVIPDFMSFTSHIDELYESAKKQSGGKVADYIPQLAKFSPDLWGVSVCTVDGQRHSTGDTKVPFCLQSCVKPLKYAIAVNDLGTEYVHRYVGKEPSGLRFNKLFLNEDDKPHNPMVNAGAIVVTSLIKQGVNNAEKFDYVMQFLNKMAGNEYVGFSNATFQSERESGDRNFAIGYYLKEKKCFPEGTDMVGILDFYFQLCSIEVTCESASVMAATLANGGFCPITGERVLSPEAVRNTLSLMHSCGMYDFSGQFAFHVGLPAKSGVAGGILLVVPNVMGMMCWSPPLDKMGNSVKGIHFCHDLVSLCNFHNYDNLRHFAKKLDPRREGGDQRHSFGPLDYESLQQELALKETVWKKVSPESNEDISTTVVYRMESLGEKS
In words: GLS1 Enzymatic Activity Assay (dual-coupled enzymatic assay). The class given is biochemical. An outline of the steps:
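Recombinant human GAC (2 nM) preincubated with 50 mM potassium phosphate, then inhibitor (10 min each, RT); 1 mM glutamine, pH 7.4 Hepes buffer, 1% DMSO. Glutamate coupled via glutamate oxidase/HRP to resorufin (Ex 530/Em 590), kinetic or 20-min endpoint; IC50 by four-parameter logistic fit.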

`COc1ncc(-c2c(C3CC3)[nH]c3nnc(CCCCn4cc(C(=O)NCc5cccc(OC(F)(F)F)c5)nn4)cc23)c(OC)n1` [Example 173, 1-{4-[6-cyclopropyl-5-(2,4-dimethoxypyrimidin-5-yl)-7H-pyrrolo[2,3-c]pyridazin-3-yl]butyl}-N-{[3-(trifluoromethoxy)phenyl]methyl}-1H-1,2,3-triazole-4-carboxamide] came in with an EC50 with A549 cells of 100 to 500 nM. Further, the IC50 in assay [1] is < 100 nM.
The compound `CC(C)(O)c1ccc(CNC(=O)c2cn(CCCCc3cc4c(C5CC5)c(-c5ccccc5F)[nH]c4nn3)nn2)cn1` [Example 174, 1-{4-[5-cyclopropyl-6-(2-fluorophenyl)-7H-pyrrolo[2,3-c]pyridazin-3-yl]butyl}-N-{[6-(2-hydroxypropan-2-yl)pyridin-3-yl]methyl}-1H-1,2,3-triazole-4-carboxamide] had a concentration giving a half-maximal response (EC50) in the assay with A549 cells of 100 to 500 nM. Besides, the IC50 in assay [1] is < 100 nM.
In turn, `O=C(NCc1cccc(OC(F)(F)F)c1)c1cn(CCCCc2cc3c(-c4ccccn4)c(-c4ccccc4F)[nH]c3nn2)nn1` [Example 175, 1-{4-[6-(2-fluorophenyl)-5-(pyridin-2-yl)-7H-pyrrolo[2,3-c]pyridazin-3-yl]butyl}-N-{[3-(trifluoromethoxy)phenyl]methyl}-1H-1,2,3-triazole-4-carboxamide] registered an EC50 in the assay on A549 cells of 500 to 5000 nM. In assay [1], the IC50 was < 100 nM.
With `COc1cccc(-c2cc3cc(CCCCn4cc(C(=O)NCc5ccc(C)nc5)nn4)nnc3[nH]2)c1` [Example 176, 1-{4-[6-(3-methoxyphenyl)-7H-pyrrolo[2,3-c]pyridazin-3-yl]butyl}-N-[(6-methylpyridin-3-yl)methyl]-1H-1,2,3-triazole-4-carboxamide], in the assay with A549 cells, the EC50 is 100 to 500 nM. Also, the IC50 in assay [1] is < 100 nM.
On the same counts, the results for `O=C(NCc1cccc(OC(F)(F)F)c1)c1cn(CCCCc2cc3c(C4CC4)c(-c4ccccn4)[nH]c3nn2)nn1` [Example 177, 1-(4-(5-cyclopropyl-6-(pyridin-2-yl)-7H-pyrrolo[2,3-c]pyridazin-3-yl)butyl)-N-(3-(trifluoromethoxy)benzyl)-1H-1,2,3-triazole-4-carboxamide 2,2,2-trifluoroacetate] are 500 to 5000 nM and < 100 nM.
`COc1cccnc1-c1c(C2CC2)[nH]c2nnc(CCCCn3cc(C(=O)NCc4cccc(OC(F)(F)F)c4)nn3)cc12` [Example 178, 1-{4-[6-cyclopropyl-5-(3-methoxypyridin-2-yl)-7H-pyrrolo[2,3-c]pyridazin-3-yl]butyl}-N-{[3-(trifluoromethoxy)phenyl]methyl}-1H-1,2,3-triazole-4-carboxamide]: the EC50 in the assay on A549 cells was in the range of 100 to 500 nM. Besides, the IC50 in assay [1] is < 100 nM.
With `CC(=O)Nc1ccc(-c2c(C3CC3)[nH]c3nnc(CCCCn4cc(C(=O)NCc5ccc(C)nc5)nn4)cc23)cc1` [Example 179, 1-{4-[6-cyclopropyl-5-(4-acetamidophenyl)-7H-pyrrolo[2,3-c]pyridazin-3-yl]butyl}-N-[(6-methylpyridin-3-yl)methyl]-1H-1,2,3-triazole-4-carboxamide], in the assay with A549 cells, the EC50 was in the range of 500 to 5000 nM. The IC50 in assay [1] is < 100 nM.
In the case of `CC(=O)Nc1ccc(-c2c(C3CC3)[nH]c3nnc(CCCCn4cc(C(=O)NCc5cccc(OC(F)(F)F)c5)nn4)cc23)cc1` [Example 180, 1-{4-[6-cyclopropyl-5-(4-acetamidophenyl)-7H-pyrrolo[2,3-c]pyridazin-3-yl]butyl}-N-{[3-(trifluoromethoxy)phenyl]methyl}-1H-1,2,3-triazole-4-carboxamide], the EC50 in the assay on A549 cells is 500 to 5000 nM. The IC50 in assay [1] is < 100 nM.
On to `NS(=O)(=O)c1cccc(-c2c(C3CC3)[nH]c3nnc(CCCCn4cc(C(=O)NCc5cccc(OC(F)(F)F)c5)nn4)cc23)c1` [Example 181, 1-{4-[6-cyclopropyl-5-(3-sulfamoylphenyl)-7H-pyrrolo[2,3-c]pyridazin-3-yl]butyl}-N-{[3-(trifluoromethoxy)phenyl]methyl}-1H-1,2,3-triazole-4-carboxamide], for which, in the assay with A549 cells, the EC50 lay within 500 to 5000 nM. Moreover, the concentration for half-maximal inhibition (IC50) in assay [1] is < 100 nM.
For the compound `Cc1ccc(CNC(=O)c2cn(CCCCc3cc4cc(-c5ccc(OC(F)(F)F)cc5)[nH]c4nn3)nn2)cn1` [Example 182, N-[(6-methylpyridin-3-yl)methyl]-1-(4-{6-[4-(trifluoromethoxy)phenyl]-7H-pyrrolo[2,3-c]pyridazin-3-yl}butyl)-1H-1,2,3-triazole-4-carboxamide], the EC50 with A549 cells fell in the range of 100 to 500 nM. In addition, the IC50 in assay [1] is < 100 nM.
In the assay on A549 cells, `Cc1ccc(CNC(=O)c2cn(CCCCc3cc4cc(-c5ccc(F)cc5F)[nH]c4nn3)nn2)cn1` [Example 183, 1-{4-[6-(2,4-difluorophenyl)-7H-pyrrolo[2,3-c]pyridazin-3-yl]butyl}-N-[(6-methylpyridin-3-yl)methyl]-1H-1,2,3-triazole-4-carboxamide] yielded an EC50 of 100 to 500 nM. Further, the IC50 in assay [1] is < 100 nM.
On to `O=C(NCc1cc(C(F)(F)F)ccn1)c1cn(CCCCc2cc3c(-c4ccoc4)c(C4CC4)[nH]c3nn2)nn1` [Example 184, 1-{4-[6-cyclopropyl-5-(furan-3-yl)-7H-pyrrolo[2,3-c]pyridazin-3-yl]butyl}-N-{[4-(trifluoromethyl)pyridin-2-yl]methyl}-1H-1,2,3-triazole-4-carboxamide], for which the EC50 in the assay on A549 cells is < 100 nM. Further, the IC50 in assay [1] is < 100 nM.
Consider `CC(C)COC(=O)N1CC(c2cc3cc(CCCCn4cc(C(=O)NCc5cc(OC(F)(F)F)ccc5F)nn4)nnc3[nH]2)C1` [Example 185, 2-methylpropyl 3-(3-{4-[4-({[2-fluoro-5-(trifluoromethoxy)phenyl]methyl}carbamoyl)-1H-1,2,3-triazol-1-yl]butyl)-7H-pyrrolo[2,3-c]pyridazin-6-yl)azetidine-1-carboxylate], for which the EC50 in the assay with A549 cells was < 100 nM. In addition, in assay [1], the IC50 was < 100 nM.
As for `O=C(NCc1cccc(C(F)(F)F)n1)c1cn(CCCCc2cc3c(-c4ccoc4)c(C4CC4)[nH]c3nn2)nn1` [Example 186, 1-{4-[6-cyclopropyl-5-(furan-3-yl)-7H-pyrrolo[2,3-c]pyridazin-3-yl]butyl}-N-{[6-(trifluoromethyl)pyridin-2-yl]methyl}-1H-1,2,3-triazole-4-carboxamide], the EC50 with A549 cells was < 100 nM. For the same compound, in assay [1], the IC50 was < 100 nM.
`O=C(NCc1ccc(C(F)(F)F)cn1)c1cn(CCCCc2cc3c(-c4ccoc4)c(C4CC4)[nH]c3nn2)nn1` [Example 187, 1-{4-[6-cyclopropyl-5-(furan-3-yl)-7H-pyrrolo[2,3-c]pyridazin-3-yl]butyl}-N-{[5-(trifluoromethyl)pyridin-2-yl]methyl}-1H-1,2,3-triazole-4-carboxamide] displayed an EC50 with A549 cells of 100 to 500 nM. Moreover, the IC50 in assay [1] was < 100 nM.
In the assay on A549 cells, `O=C(NCc1ccc(C(F)(F)F)nc1)c1cn(CCCCc2cc3c(-c4ccoc4)c(C4CC4)[nH]c3nn2)nn1` [Example 188, 1-{4-[6-cyclopropyl-5-(furan-3-yl)-7H-pyrrolo[2,3-c]pyridazin-3-yl]butyl}-N-{[6-(trifluoromethyl)pyridin-3-yl]methyl}-1H-1,2,3-triazole-4-carboxamide] gave an EC50 of 100 to 500 nM. The IC50 in assay [1] was < 100 nM.
For the compound `O=C(NCc1cncc(C(F)(F)F)c1)c1cn(CCCCc2cc3c(-c4ccoc4)c(C4CC4)[nH]c3nn2)nn1` [Example 189, 1-{4-[6-cyclopropyl-5-(furan-3-yl)-7H-pyrrolo[2,3-c]pyridazin-3-yl]butyl}-N-{[5-(trifluoromethyl)pyridin-3-yl]methyl}-1H-1,2,3-triazole-4-carboxamide], the EC50 in the assay with A549 cells is < 100 nM. Moreover, in assay [1], the IC50 is < 100 nM.

The term EC50 denotes the concentration that produces a half-maximal response. Lower therefore signals higher potency in that assay. Broadly, the IC50 is the concentration at which inhibition is half-maximal.
